The values below come from patent publication EP1247803A2, “Indolinone compounds suitable for modulation of protein kinases” (Sugen, Inc., priority 1996, dated 1998).

Assay [1] deals with T1, FLK-1 receptor (Mus musculus, UniProt P35918).
T1 construct: expressed in transfected cells; host or cells: NIH3T3 C7#3
The assay can be described thus: FLK-1 ELISA (kinase activity of the FLK-1 receptor in FLK-1/NIH3T3 cells, VEGF stimulated). Type of assay: cell-based. A digest of the protocol:
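FLK-1-expressing NIH3T3 C7#3 cells, starved overnight in 0.1% FBS medium, were treated with compounds at a 1:200 final dilution (0.5% DMSO) for 2 h at 37 °C, with VEGF stimulation. FLK-1 kinase activity was read by ELISA on anti-rabbit IgG plates using affinity-purified anti-FLK-1 antiserum.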
For orientation: ELISA stands for enzyme-linked immunosorbent assay.

For assay [2], the target named is PDGF-R (Homo sapiens, UniProt P09619). The assay is described as follows: PDGF-R ELISA. Type of assay: cell-based. An excerpt:
A PDGF-R ELISA is described in International Patent Publication No. WO 96/40116, published December 19, 1996 by Tang et al.

Chain of PDGF-R (P09619 33-1106, species assumed): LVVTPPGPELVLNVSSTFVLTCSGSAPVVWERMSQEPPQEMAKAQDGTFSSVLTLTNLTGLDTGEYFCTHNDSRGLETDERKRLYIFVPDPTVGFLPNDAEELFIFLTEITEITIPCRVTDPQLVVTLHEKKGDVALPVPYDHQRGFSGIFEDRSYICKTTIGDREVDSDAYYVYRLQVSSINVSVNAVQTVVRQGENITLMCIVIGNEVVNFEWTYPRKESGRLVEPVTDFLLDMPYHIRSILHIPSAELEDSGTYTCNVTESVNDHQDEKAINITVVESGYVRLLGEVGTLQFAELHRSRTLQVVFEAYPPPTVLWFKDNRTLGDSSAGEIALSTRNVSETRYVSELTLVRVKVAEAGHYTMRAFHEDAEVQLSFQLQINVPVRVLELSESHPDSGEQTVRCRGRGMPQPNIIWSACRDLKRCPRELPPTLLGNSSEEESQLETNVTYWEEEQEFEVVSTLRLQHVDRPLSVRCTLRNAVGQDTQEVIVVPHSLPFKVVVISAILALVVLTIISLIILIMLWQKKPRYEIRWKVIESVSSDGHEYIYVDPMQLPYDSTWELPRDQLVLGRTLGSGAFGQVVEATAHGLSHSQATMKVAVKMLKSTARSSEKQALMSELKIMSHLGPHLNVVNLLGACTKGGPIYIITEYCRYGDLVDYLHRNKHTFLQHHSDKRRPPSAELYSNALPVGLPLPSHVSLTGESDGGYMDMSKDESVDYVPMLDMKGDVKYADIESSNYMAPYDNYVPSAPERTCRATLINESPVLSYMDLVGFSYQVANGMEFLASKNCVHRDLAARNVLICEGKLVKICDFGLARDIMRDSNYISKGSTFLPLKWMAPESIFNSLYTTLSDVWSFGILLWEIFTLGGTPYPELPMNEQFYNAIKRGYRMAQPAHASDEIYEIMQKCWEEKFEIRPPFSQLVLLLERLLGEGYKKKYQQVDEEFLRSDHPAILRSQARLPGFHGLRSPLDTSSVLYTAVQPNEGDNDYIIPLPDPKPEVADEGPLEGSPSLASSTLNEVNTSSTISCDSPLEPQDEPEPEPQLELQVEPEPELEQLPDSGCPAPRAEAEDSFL
T1 sequence (P35918 20-1345): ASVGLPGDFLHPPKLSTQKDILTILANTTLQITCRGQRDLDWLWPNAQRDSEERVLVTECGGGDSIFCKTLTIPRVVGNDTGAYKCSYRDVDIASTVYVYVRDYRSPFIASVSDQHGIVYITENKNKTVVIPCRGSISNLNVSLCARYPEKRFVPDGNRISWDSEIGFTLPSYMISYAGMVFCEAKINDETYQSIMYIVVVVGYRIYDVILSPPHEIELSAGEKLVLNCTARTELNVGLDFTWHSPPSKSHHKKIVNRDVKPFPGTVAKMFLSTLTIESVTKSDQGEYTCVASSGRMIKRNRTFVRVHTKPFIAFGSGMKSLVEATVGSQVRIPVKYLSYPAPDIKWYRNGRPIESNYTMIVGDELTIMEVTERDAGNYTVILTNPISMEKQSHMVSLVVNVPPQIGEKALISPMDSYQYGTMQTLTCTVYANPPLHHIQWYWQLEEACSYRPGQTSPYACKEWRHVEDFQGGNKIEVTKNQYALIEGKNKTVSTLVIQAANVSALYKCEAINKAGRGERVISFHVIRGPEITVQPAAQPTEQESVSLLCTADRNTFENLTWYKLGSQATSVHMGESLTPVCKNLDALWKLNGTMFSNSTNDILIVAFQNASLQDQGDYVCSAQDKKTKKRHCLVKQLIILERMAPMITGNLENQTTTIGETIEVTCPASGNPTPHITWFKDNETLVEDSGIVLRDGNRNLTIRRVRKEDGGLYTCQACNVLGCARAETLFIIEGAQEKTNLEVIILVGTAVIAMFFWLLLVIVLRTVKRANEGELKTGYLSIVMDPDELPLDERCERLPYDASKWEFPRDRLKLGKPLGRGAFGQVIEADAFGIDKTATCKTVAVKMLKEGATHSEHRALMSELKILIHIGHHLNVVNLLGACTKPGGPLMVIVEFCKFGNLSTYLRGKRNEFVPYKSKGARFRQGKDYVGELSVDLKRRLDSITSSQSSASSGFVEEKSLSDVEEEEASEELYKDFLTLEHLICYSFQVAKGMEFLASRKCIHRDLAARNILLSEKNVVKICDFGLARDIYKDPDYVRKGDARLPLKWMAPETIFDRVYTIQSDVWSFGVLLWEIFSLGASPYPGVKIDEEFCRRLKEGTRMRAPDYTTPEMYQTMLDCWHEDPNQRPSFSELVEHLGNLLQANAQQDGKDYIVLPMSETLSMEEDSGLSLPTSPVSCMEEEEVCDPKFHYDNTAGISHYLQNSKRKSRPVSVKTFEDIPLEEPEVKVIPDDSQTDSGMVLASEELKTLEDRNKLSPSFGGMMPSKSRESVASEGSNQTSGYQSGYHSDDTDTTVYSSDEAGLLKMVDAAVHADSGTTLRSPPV

Consider `Cc1ccc(C=C2C(=O)Nc3ccc(Br)c(C)c32)o1` [10725/C04], for which the “Fik Kinase %Inhibition” value in assay [1] is recorded as -27.3%. Besides, in assay [2], the “PDGF Kinase %Inhibition” value was determined as 25.1%.
As to `Cc1ccc(C=C2C(=O)Nc3ccc(S(=O)(=O)N4CCOCC4)cc32)o1` [10725/F04], the “Fik Kinase %Inhibition” value in assay [1] was -6.9%. In assay [2], the “PDGF Kinase %Inhibition” value is -4.6%.
`Cc1c(Br)ccc2c1C(=Cc1c[nH]cn1)C(=O)N2` [10725/C11]: the “Fik Kinase %Inhibition” value in assay [1] is on record as 104.5%. Further, in assay [2], the “PDGF Kinase %Inhibition” value was 80.7%.
For the molecule `O=C1Nc2c(Br)cc(Br)cc2C1=Cc1cc(O)c2c(c1O)CCCC2` [10726/A07], the “Fik Kinase %Inhibition” value in assay [1] is -72.3%. Besides, in assay [2], the “PDGF Kinase %Inhibition” value was -36.8%.
In the case of `COC(=O)Cc1c(Cl)[nH]c(C=C2C(=O)Nc3ccc(Br)c(C)c32)c1C(=O)OC` [10725/C09], the “Fik Kinase %Inhibition” value in assay [1] came to 11.2%. The “PDGF Kinase %Inhibition” value in assay [2] is given as 34.7%.
As for `O=C1Nc2ccc(S(=O)(=O)N3CCOCC3)cc2C1=Cc1c[nH]cn1` [10725/F11], the “Fik Kinase %Inhibition” value in assay [1] was 9.9%. The “PDGF Kinase %Inhibition” value in assay [2] came to 20.3%.
Take `COc1ccc(Br)c(C=C2C(=O)Nc3ccc(S(=O)(=O)Nc4ccc(C(F)(F)F)cc4)cc32)c1O` [10725/E03]: the “Fik Kinase %Inhibition” value in assay [1] was -0.8%. The “PDGF Kinase %Inhibition” value in assay [2] is given as 10.7%.
Consider `COC(=O)Cc1c(Cl)[nH]c(C=C2C(=O)Nc3ccc(S(=O)(=O)N4CCOCC4)cc32)c1C(=O)OC` [10725/F09], for which the “Fik Kinase %Inhibition” value in assay [1] is 6.8%. The “PDGF Kinase %Inhibition” value in assay [2] was 28.4%.
The matching figures for `O=C1Nc2ccc(S(=O)(=O)Nc3ccc(C(F)(F)F)cc3)cc2C1=Cc1sccc1Br` [10725/E02]: -5.6% and -8.9%.
On to `O=C1Nc2ccc(F)cc2C1=C1C(=O)Nc2ccc(I)cc21` [10726/B08], for which the “Fik Kinase %Inhibition” value in assay [1] is given as 12.2%. Further, the “PDGF Kinase %Inhibition” value in assay [2] was 24.6%.
On to `Cc1ccc(C=C2C(=O)Nc3ccc(S(=O)(=O)Nc4ccc(C(F)(F)F)cc4)cc32)o1` [10725/E04], for which the “Fik Kinase %Inhibition” value in assay [1] is -38.8%. Further, the “PDGF Kinase %Inhibition” value in assay [2] is 3.1%.
On to `Cc1c(Br)ccc2c1C(=Cc1cc(O)c3c(c1O)CCCC3)C(=O)N2` [10726/C07], for which the “Fik Kinase %Inhibition” value in assay [1] is on record as -17.0%. Moreover, the “PDGF Kinase %Inhibition” value in assay [2] is -67.7%.
As to `COc1ccc(Br)c(C=C2C(=O)Nc3ccc(Br)c(C)c32)c1O` [10725/C03], the “Fik Kinase %Inhibition” value in assay [1] is 2.0%. Further, the “PDGF Kinase %Inhibition” value in assay [2] was found to be 19.3%.
On to `O=C1Nc2ccc(CCCl)cc2C1=Cc1sccc1Br` [10725/G02], for which the “Fik Kinase %Inhibition” value in assay [1] was -3.7%. In addition, the “PDGF Kinase %Inhibition” value in assay [2] was -11.8%.
Consider `CNS(=O)(=O)c1ccc2c(c1)C(=Cc1ccc(N3CCOCC3)cc1)C(=O)N2` [10725/D08], for which, in assay [1], the “Fik Kinase %Inhibition” value came out at 1.8%. Moreover, in assay [2], the “PDGF Kinase %Inhibition” value amounted to 38.5%.
With `Cc1cc(C=C2C(=O)Nc3ccc(Br)c(C)c32)[nH]n1` [10725/C05], the “Fik Kinase %Inhibition” value in assay [1] is listed as -37.0%. The “PDGF Kinase %Inhibition” value in assay [2] turned out to be 28.9%.
In the case of `CNS(=O)(=O)c1ccc2c(c1)C(=Cc1c[nH]cn1)C(=O)N2` [10725/D11], the “Fik Kinase %Inhibition” value in assay [1] came to 13.6%. Further, the “PDGF Kinase %Inhibition” value in assay [2] was determined as 23.2%.
As for `COC(=O)Cc1c(Cl)[nH]c(C=C2C(=O)Nc3ccc(CCCl)cc32)c1C(=O)OC` [10725/G09], in assay [1], the “Fik Kinase %Inhibition” value is recorded as 15.2%. For the same molecule, in assay [2], the “PDGF Kinase %Inhibition” value is given as 43.8%.
In the case of `Cc1c(Br)ccc2c1C(=Cc1ccc(Br)o1)C(=O)N2` [10726/C05], the “Fik Kinase %Inhibition” value in assay [1] was determined as 4.0%. The “PDGF Kinase %Inhibition” value in assay [2] was 25.2%.
Take `Cc1cc(C=C2C(=O)Nc3ccc(CCCl)cc32)[nH]n1` [10725/G05]: the “Fik Kinase %Inhibition” value in assay [1] is recorded as -18.3%. For the same molecule, the “PDGF Kinase %Inhibition” value in assay [2] was found to be 7.4%.
On to `Cc1c(Br)ccc2c1C(=Cc1ccc(N3CCN(C=O)CC3)cc1)C(=O)N2` [10725/C07], for which the “Fik Kinase %Inhibition” value in assay [1] is given as 65.0%. Besides, in assay [2], the “PDGF Kinase %Inhibition” value came to 107.0%.
For `CNS(=O)(=O)c1ccc2c(c1)C(=Cc1cc(C)n[nH]1)C(=O)N2` [10725/D05], the “Fik Kinase %Inhibition” value in assay [1] amounted to 2.3%. Besides, the “PDGF Kinase %Inhibition” value in assay [2] is 10.7%.
With `O=C1Nc2ccc(I)cc2C1=Cc1cc(O)c2c(c1O)CCCC2` [10726/B07], the “Fik Kinase %Inhibition” value in assay [1] is -36.5%. The “PDGF Kinase %Inhibition” value in assay [2] is reported as -59.5%.
Consider `O=C1Nc2ccc(CCCl)cc2C1=Cc1c[nH]cn1` [10725/G11], for which, in assay [1], the “Fik Kinase %Inhibition” value is -28.0%. The “PDGF Kinase %Inhibition” value in assay [2] came to 22.2%.
As for `Cc1cn(C)cc1C=C1C(=O)Nc2ccc(I)cc21` [10726/B06], in assay [1], the “Fik Kinase %Inhibition” value is listed as 11.3%. Moreover, the “PDGF Kinase %Inhibition” value in assay [2] is recorded as 34.1%.
In the case of `O=C1Nc2ccc(S(=O)(=O)Nc3ccc(C(F)(F)F)cc3)cc2C1=Cc1c[nH]cn1` [10725/E11], the “Fik Kinase %Inhibition” value in assay [1] was determined as 18.9%. Moreover, the “PDGF Kinase %Inhibition” value in assay [2] came to 20.8%.
Take `Cc1cc(C=C2C(=O)Nc3ccc(Br)c(C)c32)cc(C(C)(C)C)c1O` [10726/C04]: in assay [1], the “Fik Kinase %Inhibition” value was determined as 12.3%. The “PDGF Kinase %Inhibition” value in assay [2] amounted to 36.6%.
As to `COC(=O)Cc1c(Cl)[nH]c(C=C2C(=O)Nc3ccc(S(=O)(=O)Nc4ccc(C(F)(F)F)cc4)cc32)c1C(=O)OC` [10725/E09], in assay [1], the “Fik Kinase %Inhibition” value came to 7.0%. Moreover, the “PDGF Kinase %Inhibition” value in assay [2] was 37.5%.
As for `CNS(=O)(=O)c1ccc2c(c1)C(=Cc1ccc(C)o1)C(=O)N2` [10725/D04], the “Fik Kinase %Inhibition” value in assay [1] turned out to be 3.6%. In addition, in assay [2], the “PDGF Kinase %Inhibition” value came to 12.2%.
The matching figures for `Cc1ccc(C=C2C(=O)Nc3ccc(CCCl)cc32)o1` [10725/G04]: 6.1% and -8.9%.
The matching figures for `CNS(=O)(=O)c1ccc2c(c1)C(=Cc1c(O)cc(C)cc1OC)C(=O)N2` [10725/D06]: -0.5% and 21.7%.
Take `O=C1Nc2ccc(S(=O)(=O)Nc3ccc(C(F)(F)F)cc3)cc2C1=Cc1ccc(N2CCOCC2)cc1` [10725/E08]: the “Fik Kinase %Inhibition” value in assay [1] was 12.1%. The “PDGF Kinase %Inhibition” value in assay [2] is 48.6%.
The like results for `Cc1c(Br)ccc2c1C(=Cc1c(Br)cnn1-c1ccc(Cl)cc1)C(=O)N2` [10725/C10] were, in that order, 8.7% and 38.5%.
Consider `CNS(=O)(=O)c1ccc2c(c1)C(=Cc1sccc1Br)C(=O)N2` [10725/D02], for which the “Fik Kinase %Inhibition” value in assay [1] is listed as -3.6%. The “PDGF Kinase %Inhibition” value in assay [2] is -8.4%.
For the molecule `CNS(=O)(=O)c1ccc2c(c1)C(=Cc1c(Br)ccc(OC)c1O)C(=O)N2` [10725/D03], the “Fik Kinase %Inhibition” value in assay [1] is reported as -11.3%. Further, the “PDGF Kinase %Inhibition” value in assay [2] is reported as 5.4%.
Turning to `O=C1Nc2ccc(S(=O)(=O)Nc3ccc(C(F)(F)F)cc3)cc2C1=Cc1c(Br)cnn1-c1ccc(Cl)cc1` [10725/E10], the “Fik Kinase %Inhibition” value in assay [1] amounted to 9.3%. In addition, in assay [2], the “PDGF Kinase %Inhibition” value is 28.4%.
The like results for `O=CN1CCN(c2ccc(C=C3C(=O)Nc4ccc(S(=O)(=O)N5CCOCC5)cc43)cc2)CC1` [10725/F07] were, in that order, 6.9% and 15.0%.
The like results for `CNS(=O)(=O)c1ccc2c(c1)C(=Cc1[nH]c(Cl)c(CC(=O)OC)c1C(=O)OC)C(=O)N2` [10725/D09] were, in that order, -0.9% and 35.6%.
Regarding `COc1cc(C)cc(O)c1C=C1C(=O)Nc2ccc(CCCl)cc21` [10725/G06], in assay [1], the “Fik Kinase %Inhibition” value is reported as 21.7%. The “PDGF Kinase %Inhibition” value in assay [2] is recorded as 27.5%.
